Experimental data published in publication PMC4376724, “Differential Phenotypic and Functional Profiles of TcCA-2 -Specific Cytotoxic CD8^+ T Cells in the Asymptomatic versus Cardiac Phase in Chagasic Patients” (PLoS ONE, 2015).

Target: HLA-A*02:01 (Homo sapiens, UniProt P04439, D140Y/D185E/D98H/E176V/E277Q/G131W/G231S/I119V/I121R/I166T/I218V/L300P/L318F/N151K/N90K/P208A/P217A/Q86G/Q94H/R138H/R169H/T345S)
Assay: HLA-A*02:01 binding assay (surface stabilization on TAP-deficient T2 cells)
Conditions: different peptide concentrations in duplicate, serum-free RPMI, overnight at room temperature, PE anti-HLA-A2 (BB7.2) flow cytometry, referred to 25 μM HB-ENV335-343 peptide
Experimental: TAP-deficient T2 cells were used for the HLA-A*02:01 binding assays and the K562-A2 cells for the HLA-A*02:01 restriction assay. The cells were cultured in complete RPMI medium supplemented with 10% of inactivated Fetal Calf Serum (iFCS), 2 mM glutamine, and 100 U/ml penicillin. K562-A2 cells, expressing the HLA-A*02:01 molecule were cultured in the presence of […] of G-418, as previously described. The T2 and K562-A2 cells were kindly provided by Dr. Pedro Romero (University of Lausanne) and by Dr Peter Ponsaerts (University of Antwerp, with the permission of Dr. Cedrik Britten from Johanes Gutenberg-University Mainz), respectively.
HLA-A*02:01 surface stabilization test was carried out as described in [42]. Briefly, TAP-deficient T2 cells were loaded with different concentrations of each peptide, in duplicate in serum-free RPMI medium, and incubated overnight at room temperature. Afterwards, the cells were stained with a PE-labeled HLA-A2-specific antibody (BB7.2 clone, BD biosciences) and analyzed by flow cytometry. The high-affinity HLA-A*02:01-binding peptide […] ([…]) was included as internal standard. Affinity data were calculated as the percentage of maximum complex stabilization, as described in [44]. The following equation was used: % of maximal stabilization = 100 x [(mean fluorescence with peptide)–(background mean fluorescence)]/[(mean fluorescence with 25 μM HBENV335-343 peptide)–(background mean fluorescence)]. Background value was obtained with cells incubated in the same conditions without peptide.
The percentage of maximal binding stabilization of these eight TcCA-2 peptides was evaluated using TAP-deficient T2 cells and different concentrations of each peptide. […] The maximal binding affinity is shown for each peptide in Table 1.

Row | Sequence | % maximal stabilization
1 | ALQVTNHRYL [TcCA-2_657-666] | 21.49%
2 | TVFDASRSTV [TcCA-2_442-451] | 24.44%
3 | AAAGDKLSL [TcCA-2_273-281] | 12.41%
4 | ALRNLRVFL [TcCA-2_607-615] | 29.54%
